{"source": "patent US11028061B2", "about": "“Modulators of myocyte lipid accumulation and insulin resistance and methods of use thereof” (Sanford Burnham Prebys Medical Discovery Institute, priority 2015, dated 2021)", "data": [{"test_system": "primary murine skeletal myocytes", "assay": "TAG accumulation in primary murine skeletal myocytes", "type": "cell-based", "details": "Mus musculus, read-out: Activity Score (IC50), triacylglyceride (TAG) accumulation", "units": {"IC50": "nM"}, "values": [{"compound": "COc1ccc(-c2csc(NC(=O)c3ccc(OCC(=O)N4CCC(=O)CC4)c(OC)c3)n2)cc1", "note": "[Cpd. 12, 3-methoxy-N-(4-(4-methoxyphenyl)thiazol-2-yl)-4-(2-oxo-2-(4-oxopiperidin-1-yl)ethoxy)benzamide]", "IC50": "1000 to 10000"}]}, {"test_system": "primary murine skeletal myocytes", "assay": "TAG accumulation in primary murine skeletal myocytes", "type": "cell-based", "details": "Mus musculus; primary murine skeletal myocytes; read-out: Activity Score (IC50), triacylglyceride (TAG) accumulation", "units": {"IC50": "nM"}, "values": [{"compound": "COc1ccc(-c2csc(NC(=O)c3ccc(O)c(OC)c3)n2)cc1", "note": "[Cpd. 1, 4-hydroxy-3-methoxy-N-(4-(4-methoxyphenyl)thiazol-2-yl)benzamide]", "IC50": "> 10000"}, {"compound": "COc1cc(C(=O)Nc2nc(-c3ccccc3)cs2)ccc1O", "note": "[Cpd. 2, 4-hydroxy-3-methoxy-N-(4-phenylthiazol-2-yl)benzamide]", "IC50": "> 10000"}, {"compound": "COc1cc(C(=O)Nc2nc(-c3ccc(C)cc3)cs2)ccc1O", "note": "[Cpd. 3, 4-hydroxy-3-methoxy-N-(4-(p-tolyl)thiazol-2-yl)benzamide]", "IC50": "> 10000"}, {"compound": "COc1cc(C(=O)Nc2nc(-c3ccc(Cl)cc3)cs2)ccc1O", "note": "[Cpd. 4, N-(4-(4-chlorophenyl)thiazol-2-yl)-4-hydroxy-3-methoxybenzamide]", "IC50": "1000 to 10000"}, {"compound": "COc1cc(C(=O)Nc2nc(-c3ccc(Cl)c(Cl)c3)cs2)ccc1O", "note": "[Cpd. 5, N-(4-(3,4-dichlorophenyl)thiazol-2-yl)-4-hydroxy-3-methoxybenzamide]", "IC50": "1000 to 10000"}, {"compound": "COc1cc(C(=O)Nc2nc(-c3ccc(C#N)cc3)cs2)ccc1O", "note": "[Cpd. 6, N-(4-(4-cyanophenyl)thiazol-2-yl)-4-hydroxy-3-methoxybenzamide]", "IC50": "1000 to 10000"}, {"compound": "COc1ccc(-c2csc(NC(=O)c3ccc(OCC(=O)N4CCCCC4)c(OC)c3)n2)cc1", "note": "[Cpd. 8, 3-methoxy-N-(4-(4-methoxyphenyl)thiazol-2-yl)-4-(2-oxo-2-(piperidin-1-yl)ethoxy)benzamide]", "IC50": "1000 to 10000"}, {"compound": "COc1ccc(-c2csc(NC(=O)c3ccc(OCC(=O)N4CCN(C)CC4)c(OC)c3)n2)cc1", "note": "[Cpd. 9, 3-methoxy-N-(4-(4-methoxyphenyl)thiazol-2-yl)-4-(2-(4-methylpiperazin-1-yl)-2-oxoethoxy)benzamide]", "IC50": "< 1000"}, {"compound": "COc1ccc(-c2csc(NC(=O)c3ccc(OCC(=O)NCC4CC4)c(OC)c3)n2)cc1", "note": "[Cpd. 10, 4-(2-((cyclopropylmethyl)amino)-2-oxoethoxy)-3-methoxy-N-(4-(4-methoxyphenyl)thiazol-2-yl)benzamide]", "IC50": "1000 to 10000"}, {"compound": "COc1ccc(-c2csc(NC(=O)c3ccc(OCC(=O)N4CCSCC4)c(OC)c3)n2)cc1", "note": "[Cpd. 11, 3-methoxy-N-(4-(4-methoxyphenyl)thiazol-2-yl)-4-(2-oxo-2-thiomorpholinoethoxy)benzamide]", "IC50": "< 1000"}, {"compound": "COc1ccc(-c2csc(NC(=O)c3ccc(OCC(=O)N4CCN(S(C)(=O)=O)CC4)c(OC)c3)n2)cc1", "note": "[Cpd. 13, 3-methoxy-N-(4-(4-methoxyphenyl)thiazol-2-yl)-4-(2-(4-(methylsulfonyl)piperazin-1-yl)-2-oxoethoxy)benzamide]", "IC50": "> 10000"}, {"compound": "COc1ccc(-c2csc(NC(=O)c3ccc(OCC(=O)NCCN4CCCCC4)c(OC)c3)n2)cc1", "note": "[Cpd. 14, 3-methoxy-N-(4-(4-methoxyphenyl)thiazol-2-yl)-4-(2-oxo-2-((2-(piperidin-1-yl)ethyl)amino)ethoxy)benzamide]", "IC50": "1000 to 10000"}, {"compound": "CCN(CCN(C)C)C(=O)COc1ccc(C(=O)Nc2nc(-c3ccc(OC)cc3)cs2)cc1OC", "note": "[Cpd. 15, 4-(2-((2-(dimethylamino)ethyl)(ethyl)amino)-2-oxoethoxy)-3-methoxy-N-(4-(4-methoxyphenyl)thiazol-2-yl)benzamide]", "IC50": "> 10000"}, {"compound": "COC(=O)CNC(=O)COc1ccc(C(=O)Nc2nc(-c3ccc(OC)cc3)cs2)cc1OC", "note": "[Cpd. 16, Methyl (2-(2-methoxy-4-((4-(4-methoxyphenyl)thiazol-2-yl)carbamoyl)phenoxy)acetyl)glycinate]", "IC50": "> 10000"}, {"compound": "COc1ccc(-c2csc(NC(=O)c3ccc(OCC(N)=O)c(OC)c3)n2)cc1", "note": "[Cpd. 17, 4-(2-amino-2-oxoethoxy)-3-methoxy-N-(4-(4-methoxyphenyl)thiazol-2-yl)benzamide]", "IC50": "1000 to 10000"}, {"compound": "CNC(=O)COc1ccc(C(=O)Nc2nc(-c3ccc(OC)cc3)cs2)cc1OC", "note": "[Cpd. 18, 3-methoxy-N-(4-(4-methoxyphenyl)thiazol-2-yl)-4-(2-(methylamino)-2-oxoethoxy)benzamide]", "IC50": "< 1000"}, {"compound": "COc1ccc(-c2csc(NC(=O)c3ccc(OCC(=O)N(C)C)c(OC)c3)n2)cc1", "note": "[Cpd. 19, 4-(2-(dimethylamino)-2-oxoethoxy)-3-methoxy-N-(4-(4-methoxyphenyl)thiazol-2-yl)benzamide]", "IC50": "1000 to 10000"}, {"compound": "COCCNC(=O)COc1ccc(C(=O)Nc2nc(-c3ccc(OC)cc3)cs2)cc1OC", "note": "[Cpd. 20, 3-methoxy-4-(2-((2-methoxyethyl)amino)-2-oxoethoxy)-N-(4-(4-methoxyphenyl)thiazol-2-yl)benzamide]", "IC50": "1000 to 10000"}, {"compound": "COCCCNC(=O)COc1ccc(C(=O)Nc2nc(-c3ccc(OC)cc3)cs2)cc1OC", "note": "[Cpd. 21, 3-methoxy-N-(4-(4-methoxyphenyl)thiazol-2-yl)-4-(2-((3-methoxypropyl)amino)-2-oxoethoxy)benzamide]", "IC50": "1000 to 10000"}, {"compound": "COc1ccc(-c2csc(NC(=O)c3ccc(OCC(=O)NC4CCC4)c(OC)c3)n2)cc1", "note": "[Cpd. 22, 4-(2-(cyclobutylamino)-2-oxoethoxy)-3-methoxy-N-(4-(4-methoxyphenyl)thiazol-2-yl)benzamide]", "IC50": "< 1000"}, {"compound": "COc1ccc(-c2csc(NC(=O)c3ccc(OCC(=O)NCc4ccccc4)c(OC)c3)n2)cc1", "note": "[Cpd. 23, 4-(2-(benzylamino)-2-oxoethoxy)-3-methoxy-N-(4-(4-methoxyphenyl)thiazol-2-yl)benzamide]", "IC50": "1000 to 10000"}, {"compound": "COc1ccc(-c2csc(NC(=O)c3ccc(OCC(=O)NCc4ccccn4)c(OC)c3)n2)cc1", "note": "[Cpd. 24, 3-methoxy-N-(4-(4-methoxyphenyl)thiazol-2-yl)-4-(2-oxo-2-((pyridin-2-ylmethyl)amino)ethoxy) Benzamide]", "IC50": "> 10000"}, {"compound": "COc1cc(C(=O)Nc2nc(-c3ccccc3)cs2)ccc1OCC(=O)N1CCOCC1", "note": "[Cpd. 25, 3-methoxy-4-(2-morpholino-2-oxoethoxy)-N-(4-phenylthiazol-2-yl)benzamide]", "IC50": "< 1000"}, {"compound": "COc1cc(C(=O)Nc2nc(-c3ccc(OC(F)(F)F)cc3)cs2)ccc1OCC(=O)N1CCOCC1", "note": "[Cpd. 26, 3-methoxy-4-(2-morpholino-2-oxoethoxy)-N-(4-(4-(trifluoromethoxy)phenyl)thiazol-2-yl)benzamide]", "IC50": "< 1000"}, {"compound": "COc1cc(C(=O)Nc2nc(-c3ccc(O)cc3)cs2)ccc1OCC(=O)N1CCOCC1", "note": "[Cpd. 27, N-(4-(4-hydroxyphenyl)thiazol-2-yl)-3-methoxy-4-(2-morpholino-2-oxoethoxy)benzamide]", "IC50": "< 1000"}, {"compound": "CCOc1ccc(-c2csc(NC(=O)c3ccc(OCC(=O)N4CCOCC4)c(OC)c3)n2)cc1", "note": "[Cpd. 28, N-(4-(4-ethoxyphenyl)thiazol-2-yl)-3-methoxy-4-(2-morpholino-2-oxoethoxy)benzamide]", "IC50": "< 1000"}, {"compound": "COc1cc(C(=O)Nc2nc(-c3ccc(OC(C)C)cc3)cs2)ccc1OCC(=O)N1CCOCC1", "note": "[Cpd. 29, N-(4-(4-isopropoxyphenyl)thiazol-2-yl)-3-methoxy-4-(2-morpholino-2-oxoethoxy)benzamide]", "IC50": "< 1000"}, {"compound": "COc1cc(C(=O)Nc2nc(-c3ccc(C)cc3)cs2)ccc1OCC(=O)N1CCOCC1", "note": "[Cpd. 30, 3-methoxy-4-(2-morpholino-2-oxoethoxy)-N-(4-(p-tolyl)thiazol-2-yl)benzamide]", "IC50": "< 1000"}, {"compound": "COc1cc(C(=O)Nc2nc(-c3ccc(Cl)cc3)cs2)ccc1OCC(=O)N1CCOCC1", "note": "[Cpd. 31, N-(4-(4-chlorophenyl)thiazol-2-yl)-3-methoxy-4-(2-morpholino-2-oxoethoxy)benzamide]", "IC50": "< 1000"}, {"compound": "COc1cc(C(=O)Nc2nc(-c3ccc(C#N)cc3)cs2)ccc1OCC(=O)N1CCOCC1", "note": "[Cpd. 32, N-(4-(4-cyanophenyl)thiazol-2-yl)-3-methoxy-4-(2-morpholino-2-oxoethoxy)benzamide]", "IC50": "< 1000"}, {"compound": "COc1cc(C(=O)Nc2nc(-c3ccc([N+](=O)[O-])cc3)cs2)ccc1OCC(=O)N1CCOCC1", "note": "[Cpd. 33, 3-methoxy-4-(2-morpholino-2-oxoethoxy)-N-(4-(4-nitrophenyl)thiazol-2-yl)benzamide]", "IC50": "< 1000"}, {"compound": "COc1cc(C(=O)Nc2nc(-c3ccc(N4CCCC4)cc3)cs2)ccc1OCC(=O)N1CCOCC1", "note": "[Cpd. 34, 3-methoxy-4-(2-morpholino-2-oxoethoxy)-N-(4-(4-(pyrrolidin-1-yl)phenyl)thiazol-2-yl)benzamide]", "IC50": "< 1000"}, {"compound": "COc1cccc(-c2csc(NC(=O)c3ccc(OCC(=O)N4CCOCC4)c(OC)c3)n2)c1", "note": "[Cpd. 35, 3-methoxy-N-(4-(3-methoxyphenyl)thiazol-2-yl)-4-(2-morpholino-2-oxoethoxy)benzamide]", "IC50": "1000 to 10000"}, {"compound": "COc1ccc(-c2csc(NC(=O)c3ccc(OCC(=O)N4CCOCC4)c(OC)c3)n2)c(OC)c1", "note": "[Cpd. 36, N-(4-(2,4-dimethoxyphenyl)thiazol-2-yl)-3-methoxy-4-(2-morpholino-2-oxoethoxy)benzamide]", "IC50": "< 1000"}, {"compound": "COc1cc(C(=O)Nc2nc(-c3ccc(Cl)c(Cl)c3)cs2)ccc1OCC(=O)N1CCOCC1", "note": "[Cpd. 37, N-(4-(3,4-dichlorophenyl)thiazol-2-yl)-3-methoxy-4-(2-morpholino-2-oxoethoxy)benzamide]", "IC50": "< 1000"}, {"compound": "COc1ccc(-c2csc(NC(=O)c3ccc(OCC(=O)N4CCOCC4)c(OC)c3)n2)cc1OC", "note": "[Cpd. 38, N-(4-(3,4-dimethoxyphenyl)thiazol-2-yl)-3-methoxy-4-(2-morpholino-2-oxoethoxy)benzamide]", "IC50": "1000 to 10000"}, {"compound": "COc1cc(C(=O)Nc2nc(-c3ccc4c(c3)OCO4)cs2)ccc1OCC(=O)N1CCOCC1", "note": "[Cpd. 39, N-(4-(benzo[d][1,3]dioxol-5-yl)thiazol-2-yl)-3-methoxy-4-(2-morpholino-2-oxoethoxy)benzamide]", "IC50": "1000 to 10000"}, {"compound": "O=C(Nc1nc(-c2ccc(OC(F)F)cc2)cs1)c1ccc(OCC(=O)N2CCOCC2)cc1", "note": "[Cpd. 40, N-(4-(4-(difluoromethoxy)phenyl)thiazol-2-yl)-4-(2-morpholino-2-oxoethoxy)benzamide]", "IC50": "< 1000"}, {"compound": "COc1ccc(-c2csc(NC(=O)c3ccc(OCC(=O)N4CCOCC4)cc3)n2)cc1", "note": "[Cpd. 41, N-(4-(4-methoxyphenyl)thiazol-2-yl)-4-(2-morpholino-2-oxoethoxy)benzamide]", "IC50": "< 1000"}]}]}
